One test has as its system A2780 DDP. Kind of test: In vitro cytotoxicity, two cell line test procedure (A2780 DDP). The format is cell-based. The note with it: Homo sapiens, 48 hours exposure, sulforhodamine B, cisplatin-resistant. The method, then:
(§1) Description of the two cell line test procedure
(§2) A2780 S and A2780 DDP cells [Biochemical and Molecular Properties of Cisplatin-resistant A2780 Cells Grown in Folinic Acid; Y. Lu, J. Hnan, and K. Scanlon, J. Biol. Chem., 263, 4891-4894, 1988.] are grown in RPMI 1640 medium containing 5% fetal calf serum, 50 μg/ml streptomycin, 50 units/ml penicillin, 50 μg/ml gentamycin, 0.03% L-glutamine, 1 nM estradiol, 1 nM testosterone, 5 μg/mlinsulin, 5 μg/ml transferrin, and 5 ng/ml selenous acid, at 37° C., in a humidified atmosphere, containing 5% CO2. Experiments are done in the same media.
(§3) Cells are plated at the concentration of 5×10^4 /ml on Day 0 of the experiment. On Day one control cells are fixed with trichloroacetic acid and 5 ten fold dilutions of tested compounds are added, in duplicates, to the remaining cells. On Day 3 (48 hours exposure to drugs) all cells are fixed with trichloroacetic acid, stained with 0.4% sulforhodamine B, and absorbency is read at 520 nm. The IC50s (concentration causing 50% inhibition) are determined for each drug.

Another test deals with A2780 S. Put plainly: In vitro cytotoxicity, two cell line test procedure (A2780 S). The format is cell-based. Particulars: Homo sapiens, A2780S; 48 hours exposure, sulforhodamine B. On the procedure:
as §1, §2, §3

The subject of test [1] is P388. Particulars: Denny et al., Mutation Research 232: 233 (1990); cited from earlier work.
For test [2] the following is noted: Denny et al., Mutation Research 232: 233 (1990); cited from earlier work.
Another test deals with LS174T. Kind of test: Human Tumor Xenograft Standard Pharmacological Test Procedure. The note with it: days 1,5,9. The format is in vivo, human tumor in athymic nude mice. From the text:
Human Tumor Xenograft Standard Pharmacological Test Procedure
(In general: In xenograft studies the graft and the host belong to different species.)

The subject of test [3] is P388. Kind of test: Murine P388 Leukemia. The format is in vivo, murine (CD2F1 mice). Particulars: days 1,5,9. The method, then: (§4) Murine Tumor Standard Pharmacological Test Procedures
CD2F1 mice are injected i.p. with 1×10^6 tumor cells on Day 0 of the test. Drugs are administered i.p. on Days 1, 5, and 9 after the tumor implantation.

For the next test, the system named is COLON 26. Kind of test: Murine Colon 26 Advanced, Metastatic Tumor. The format is in vivo, murine (CD2F1 mice). On the procedure: as §4
Murine Colon 26 Advanced, Metastatic Tumor
CD2F1 mice are injected i.p. with 5×10^5 tumor cells on Day 0 of the test. […]

The subject of test [4] is P388. Put plainly: Murine P388 Leukemia. The format is in vivo, murine (CD2F1 mice). Particulars: 200 mg/kg i.p., days 1,5.

Usually IC50 stands for the point on the concentration scale where inhibition reaches its midpoint. Low readings indicate higher potency, high ones lower potency.

In brackets after ≈: the same amount, converted by molar mass. Where a name gives a salt, the structure may show the parent alone.

As to `CN(C)CCNC(=O)c1cccn2c(=O)c3cc(-c4cccc5ccccc45)ccc3nc12` [Example 17, 11H-pyrido[2,1-b)quinazoline-6-carboxamide, N-[2-(dimethylamino)ethyl]-2-(1-naphthalenyl)-11-oxo], the half-maximal inhibitory concentration (IC50) in the test on A2780 DDP came to 4.7 µg/mL (≈ 10.8 µM); with A2780 S it was 4.6 µg/mL (≈ 10.5 µM).
Regarding `CN(C)CCNC(=O)c1cccn2c(=O)c3ccccc3nc12` [I, N-[2-(dimethylamino)ethyl]-11-oxo-11H-pyrido[2,1-b]quinalzoline-6-carboxamide], the “activity in P388 mouse model” value in the test with P388 [1] was “inactive in a P388 mouse model”. Also, the in vitro activity result in test [2] is listed as “showed some in vitro activity”.
As to `CC[C@]1(O)C[C@H]2CN(CCc3c([nH]c4ccccc34)[C@@](C(=O)OC)(c3cc4c(cc3OC)N(C=O)[C@H]3[C@@](O)(C(=O)OC)[C@H](OC(C)=O)[C@]5(CC)C=CCN6CC[C@]43[C@@H]65)C2)C1` [Vincristine, reference compound], the “% T/C (relative tumor growth treated/placebo)” value in the test on LS174T (1.0 mg/kg i.p.) was determined as 52 % T/C. Further, the “% ILS” value in the test on P388 [3] (0.8 mg/kg i.p.) is on record as “+114 % ILS”.
For `CN(C)CCNC(=O)c1cccn2c(=O)c3ccc(-c4cccc(N)c4)cc3nc12` [Example 35, 11H-Pyrido[2,1-b]quinazoline-6-carboxamide, 3-(3-aminophenyl)-N-[2-(dimethylamino)ethyl]-11-oxo], the results for the IC50 in the test with A2780 DDP and in the test with A2780 S were 0.4 µg/mL (≈ 0.996 µM) and 0.5 µg/mL (≈ 1.25 µM), respectively.
`COc1ccc(-c2ccc3nc4c(C(=O)NCCN(C)C)cccn4c(=O)c3c2)cc1` [Example 19, 11H-Pyrido[2,1-b]quinazoline-6-carboxamide, N-[2-(dimethylamino)ethyl]-2-(4-methoxyphenyl)-11-oxo]: the figures for the concentration for half-maximal inhibition (IC50) in the test with A2780 DDP and in the test with A2780 S were 3.4 µg/mL (≈ 8.16 µM) and 4.3 µg/mL (≈ 10.3 µM), respectively. The “% ILS” value in the test with P388 [3] (50 mg/kg i.p.) is on record as -9 % ILS; in the test on P388 [3] (100 mg/kg i.p.), “+4 % ILS”; with P388 [3] (200 mg/kg i.p.), “+6 % ILS”.
Turning to `CN(C)CCNC(=O)c1cccn2c(=O)c3cc(-c4cccc(N(C)C)c4)ccc3nc12` [Example 21], the IC50 in the test with A2780 DDP is 0.5 µg/mL (≈ 1.16 µM); with A2780 S, 0.2 µg/mL (≈ 0.466 µM).
With `O=C(NCCNCCO)c1cccn2c(=O)c3cc(-c4ccccc4)ccc3nc12` [Example 26, 11H-pyrido[2,1-b]quinazoline-6-carboxamide, N-[2-[(2-hydroxyethyl)amino]-ethyl]-11-oxo-2-phenyl, dihydrochloride], the IC50 in the test with A2780 DDP stood at 3.5 µg/mL; in the test on A2780 S, 0.8 µg/mL.
As to `Nc1cccc(-c2ccc3nc4c(C(=O)NCCNCCO)cccn4c(=O)c3c2)c1` [Example 24, 11H-Pyrido [2,1-b]quinazoline-6-carboxamide, 2-(3-aminophenyl)-N-[2-[(2-hydroxyethyl)amino]ethyl]-11-oxo-trihydrochloride], the IC50 was 2.1 µg/mL with A2780 DDP and 0.6 µg/mL with A2780 S. Further, the “% ILS” value in the test on COLON 26 (200 mg/kg i.p., days 5,9,13) is given as “+24 % ILS”; in the test with COLON 26 (300 mg/kg i.p., days 5,9,13), -24 % ILS; in the test with P388 [3] (25 mg/kg i.p.), “+12 % ILS”; in the test on P388 [3] (50 mg/kg i.p.) it was “+4 % ILS”; in the test on P388 [3] (100 mg/kg i.p.) it was “+4 % ILS”; in the test with P388 [3] (200 mg/kg i.p.), 0 % ILS.
Regarding `CN(C)CCNC(=O)c1cccn2c(=O)c3cc(-c4cccc(N)c4)ccc3nc12` [Example 13, 11H-Pyrido[2,1-b]quinazoline-6-carboxamide, 2-(3-aminophenyl)-N-[2-(dimethylamino)ethyl]-11-oxo], the half-inhibitory concentration (IC50) is 3.7 µg/mL (≈ 9.22 µM) with A2780 DDP and 0.4 µg/mL (≈ 0.996 µM) with A2780 S. Further, the “% ILS” value with COLON 26 (100 mg/kg i.p., days 5,9,13) was “+18 % ILS”; with COLON 26 (200 mg/kg i.p., days 5,9,13) it was “+24 % ILS”; in the test with COLON 26 (250 mg/kg i.p., days 5,9,13), “+35 % ILS”; with P388 [3] (25 mg/kg i.p.), “+4 % ILS”; in the test on P388 [3] (50 mg/kg i.p.) it was “+2 % ILS”; with P388 [3] (100 mg/kg i.p.), “+20 % ILS”. Moreover, in the test on P388 [3] (200 mg/kg i.p.), the “% ILS” value is reported as “+57 % ILS”. Also, the figures for the “% T/C (relative tumor growth treated/placebo)” value in the test on LS174T (250 mg/kg i.p.) and in the test on LS174T (300 mg/kg i.p.) were 59 % T/C and 44 % T/C, respectively.
On to `Nc1ccccc1-c1ccc2nc3c(C(=O)NCCNCCO)cccn3c(=O)c2c1` [Example 30, 11H-Pyrido[2,1-b]quinazoline-6-carboxamide, 2-(2-aminophenyl)-N-[2-[(2-hydroxyethyl)amino]ethyl]-11-oxo-trihydrochloride], for which the concentration for half-maximal inhibition (IC50) in the test on A2780 DDP was found to be 6.9 µg/mL; with A2780 S, 4.8 µg/mL.
The corresponding values for `CN(C)CCNC(=O)c1cccn2c(=O)c3cc(-c4cccc(C(F)(F)F)c4)ccc3nc12` [Example 18] are 4.2 µg/mL (≈ 9.24 µM) and 1.1 µg/mL (≈ 2.42 µM).
For `CN(C)CCNC(=O)c1cccn2c(=O)c3cc(-c4cc5ccccc5c5ccccc45)ccc3nc12` [Example 16], in that order: 5.3 µg/mL (≈ 10.9 µM) and 4.1 µg/mL (≈ 8.43 µM).
On to `COc1cccc2c1C(=O)c1c(O)c3c(c(O)c1C2=O)C[C@@](O)(C(=O)CO)C[C@@H]3O[C@H]1C[C@H](N)[C@H](O)[C@H](C)O1` [Adriamycin, reference compound], for which the “% ILS” value in the test on COLON 26 (4 mg/kg i.p., days 5,9,14) is reported as “+71 % ILS”.
`CN(C)CCNC(=O)c1cccn2c(=O)c3cc(-c4ccccc4-c4ccccc4)ccc3nc12` [Example 14, 11H-Pyrido[2,1-b]quinazoline-6-carboxamide, 2-[1,1'biphenyl]-2-yl-N-[2-(dimethylamino)ethyl]-11-oxo]: the half-inhibitory concentration (IC50) came to 4.8 µg/mL (≈ 10.4 µM) in the test with A2780 DDP and 4.4 µg/mL (≈ 9.51 µM) with A2780 S.
For `CN(C)CCNC(=O)c1cccn2c(=O)c3cc(-c4cccc(-c5ccccc5)c4)ccc3nc12` [Example 15, 11H-Pyrido[2,1-b]quinazoline-6-carboxamide, 2-[1,1'-biphenyl]-3-yl-N-[2-(dimethylamino)ethyl]-11-oxo], the figures for the “% ILS” value in the test on P388 [4], in the test on P388 [3] (50 mg/kg i.p.) and with P388 [3] (100 mg/kg i.p.) were -40 % ILS, “+8 % ILS” and “+2 % ILS”, respectively. Besides, the IC50 was 0.8 µg/mL (≈ 1.73 µM) with A2780 DDP and 0.6 µg/mL (≈ 1.3 µM) with A2780 S.
Turning to `CN(C)CCNC(=O)c1cccn2c(=O)c3cc(-c4cc(C(F)(F)F)cc(C(F)(F)F)c4)ccc3nc12` [Example 20, 11H-Pyrido[2,1-b]quinazoline-6-carboxamide, 2-[3,5-bis(trifluoromethyl)phenyl]-N-[2-(dimethylamino)ethyl]-11-oxo], the half-maximal inhibitory concentration (IC50) in the test with A2780 DDP stood at 3 µg/mL (≈ 5.74 µM); in the test with A2780 S, 3.8 µg/mL (≈ 7.27 µM).
